Legend:
[1] = system: SNL model; assay: Antiallodynic activity on Chung model (SNL, spinal nerve ligation; von Frey); assay type: in vivo, Sprague-Dawley rats; details: 0.5 h, rat, oral; for ED50: von Frey
Procedure: Male. Sprague-Dawley rats (200-220 g, Orient Bio, Korea) were habituated for 1 week before the experiment and allowed free access to food and water throughout the experimentation. Room temperature and humidity were maintained at 24±2° C. and 50±10%, respectively. Neuropathic surgery (SNL, Spinal nerve ligation) model was clone as described in Kim and Chung (1992). Briefly, animal under gaseous anesthesia with isoflurane a 4:4 flow ratio of NO2. The left lumber spinal nerve L5 and L6 were isolated and tightly ligated with 4-0 silk thread. The wound was treated with a gentamicin antibiotics solution (4 mg/kg, 4 ul/g, bw), and the wound muscle was closed with cat cut chrom 4/0 thread and skin was closed dafilon 4/0 tread. Sham controls were prepared in the same manner as the spinal nerves were exposed, but no ligated L5 and L6 nerves. But, vehicle controls were identical to SNL model, except for administration of vehicles.
(§1) Tactile sensitivity (Mechanical allodynia) was evaluated using von Frey monofilaments before and after treatment and animals were used withdrawal threshold value was less than 4 g. One week after surgery, SNL-operated animals (n=4˜6), sham-operated animals (n=4˜10) and vehicle-operated animals (n=4˜13) were tested for tactile sensitivity with von Frey monofilaments 3 trials in each animal. All Animals were placed in a stainless steel mashed chamber and habituated for 30 min in the test box. The tactile sensitivity for ipsilateral hind paw was measured using the up-and-down method (Dixon, 1980) with seven von Frey monofilaments (0.4, 1, 2, 4, 6, 8, and 15 g) to 3 trials. Tactile sensitivity test was followed by Dixon's method (Dixon, 1980). The 50% paw withdrawal threshold for each paw was calculated using the following formula: [Xth] log=[vFr] log+ky where [vFr] is the force of the last von Frey used, k=0.2249 which is the average interval (in log units) between the von Frey monofilaments, and y is a value that depends upon the pattern of withdrawal responses (Dixon, 1980).
All animals were fasted 18 h before the administration of the compounds. The antiallodynic effect of the compounds were evaluated at the various dose (n=5˜6), orally administrated in a volume of 5 ul/g, bw in a vehicle of 30% (v/v) PEG 400 or 20% (v/v) Tween 80 or Saline. […]
The relative values compared to the sham group (% control) were calculated and shown in Table 5, which show an antiallodynic effect of the test compounds on SNL model in rats.

[2] = system: hot plate withdrawal latency; assay: Hot-plate test; assay type: in vivo, ICR mice; details: mouse, oral
Procedure: To examine the pain relief effect of the sulfamate derivative compounds, a hot-plate test was conducted in general pain animal model referring to Current Protocols in Neuroscience; Behavioral Neuroscience Unit 8.9.
ICR mice (male, 30-35 g: Orient Bio, Korea) were habituated before test in test room for 1 hour. Animals were fasted 2 hr before administration of compounds. […] All compounds were dissolved in a vehicle of 30% (v/v) PEG 400 or 20% (v/v) Tween 80. The control group was treated the vehicle without compounds.
[…] (Hu, X. et al, 2008), and then, measured as the withdrawal latency (cut-off time: 30 sec) time until the point when each mouse was taking off a paw from the plate, shaking, licking a paw or hind leg, or jumping from the plate.

[3] = system: tail-flick withdrawal latency; assay: Tail-flick test; assay type: in vivo, ICR mice; details: mouse, oral
Procedure: To examine the pain relief effect of the sulfamate compounds, a tail-flick test was conducted in general pain animal model referring to Current Protocols in Neuroscience; Behavioral Neuroscience Unit 8.9.
ICR mice (male, 25-30 g; Orient Bio, Korea) were habituated before test in test room for 1 hour. Animals were fasted 2 hr before administration of compounds. Each of Compound was orally administered at the close of 150 mg/kg, 10 ul/g, bw (n=7˜10/group). All compounds were dissolved in a vehicle of 30% (v/v) PEG 400 or 20% (v/v) Tween 80. The control group was treated the vehicle without compounds.
After the administration of compounds, the mice tail were put on a tail-flick analgesia meter. To avoid tissue damage, maximal exposure time to pain stimuli was restricted to 15 s. The withdrawal latency was measured as the time to the point when each mouse response to the stimulus. The relative values compared to the control (% control) were calculated.
The relative values compared to the sham were calculated and shown in Table 12, which show effect of the compound of examples on tail-flick test in […].

[4] = system: CFA-induced pain model; assay: Antiallodynic activity on Complete Freund's Adjuvant (CFA)-induced inflammatory pain model (von Frey); assay type: in vivo, Sprague-Dawley rats; details: Rattus norvegicus, ip, 0.5 h, 0.5 h, read-out: CFA model: effect (%) at the concentration administered
Procedure: Male, Sprague-Dawley rats (200-220 g, Nara Bio, Korea) were habituated for 1 week before surgery and allowed free access to food and water throughout the experimentation. Room temperature and humidity were maintained at 24±2° C. and 50±10%, respectively.
CFA-induced inflammatory pain was induced by the procedure of Nagakura et al. (2003) and Gregory P. et al. (2010) with minor modifications. CFA (sigma, USA) was injected in the left plantar with a 100 ul volume under gaseous anesthesia with isoflurane a 4:4 flow ratio of NO2 Sham controls were injected with 100 ul of saline and vehicle controls were identical to CFA infusion model, except for administration of vehicles.
as §1, with “treatment,” for “treatment”, “CFA-infused” for “SNL-operated”, “(n=12),” for “(n=4˜10)”, “(n=17)” for “(n=4˜13)”
[…] The test was performed peak time of efficacy (0.5 hr) after compound administration.
The relative values compared to the sham (% control) were calculated and shown in Table 4, which show an antiallodynic effect of the compound of Examples on CFA-induced pain model in rats.

[5] = system: Post operation-induced pain model; assay: Antiallodynic activity on post operative-induced pain model (von Frey); assay type: in vivo, Sprague-Dawley rats; details: 2 mg/kg, 0.5 h, rat, intraperitoneal
Procedure: Male Sprague-Dawley rats′(Orient Bio, Korea), 300˜320 g, total of 201 rats were used (details in Table 7). Rats were habituated at least 3 clays before surgery and free access to food and water (room temperature and humidity were maintained at 24±2° C. and 50±10%, respectively). The process of performing the post-operation model's surgery was adapted from Brennan et al (1996). At first, rats with allodynia (threshold valueless than 8 g) were excluded in Pre-von Frey Test. During the post-operation surgery, rats were anesthetized under gaseous anesthesia with 2% isoflurane. Rats were laid face down on a plate fixed at 37° C. to prevent against hypothermia. The ipsilateral plantar aspect (left side) of the hind paw was prepared in a sterile manner with a 10% povidone-iodine solution. […]
For efficacy measure, the threshold value of group C was assigned 100% efficacy, and the percentage of the threshold values of group A compared to group C (for each different dose level) were calculated as the efficacies. Base on these efficacy values, ED50 was calculated using log fitting. […]
For pain threshold test, all animals were placed in a stainless steel meshed chamber and habituated for 30 min in the test box. The tactile sensitivity of the ipsilateral hind paw was measured using the up-and-down method (Dixon, 1980) with seven von Frey monofilaments (0.4, 1, 2, 4, 6, 8, and 15 g) using 3 trials. […]

SMILES: CC1(C)O[C@@H](COS(N)(=O)=O)[C@H](c2ccccc2I)O1 [Example 28, ((4S,5S)-5-(2-iodophenyl)-2,2-dimethyl-1,3-dioxolan-4-yl)methyl sulfamate]
- response vs control in vivo at 90 mg/kg ([1]; 90 mg/kg, read-out: SNL model: effect (%) at the concentration administered): 72.6%
- Hot plate test: effect (%) at the concentration administered ([2]; 100 mg/kg): ^#100 (126.4%)
- tail-flick test: dose [3]: > 200 mg/kg
- response vs control in vivo at 40 mg/kg ([4]; 40 mg/kg, rat, intraperitoneal): 17.8%

SMILES: CC1(C)O[C@@H](COS(N)(=O)=O)[C@H](c2ccccc2F)O1 [Example 16, ((4S,5S)-5-(2-fluorophenyl)-2,2-dimethyl-1,3-dioxolan-4-yl)methyl sulfamate]
- ED50 [1]: 24.6 mg/kg
- ED50 ([2]; 1 h): 116 mg/kg
- tail-flick test: dose [3]: > 200 mg/kg

SMILES: CC1(C)O[C@@H](COS([NH-])(=O)=O)[C@H](c2ccccc2Cl)O1.[Na+] [Example 177, sodium ((((4S,5S)-5-(2-chlorophenyl)-2,2-dimethyl-1,3-dioxolan-4-yl)methoxy)sulfonyl)amide]
- Post Operation: effect (%) at the concentration administered [5]: ^#2 (64.4%, 0.5 h)
- response vs control in vivo at 15 mg/kg [4]: 67.2%

SMILES: CC1(C)O[C@H](c2ccccc2F)[C@@H](COS(N)(=O)=O)O1 [Example 15, ((4R,5R)-5-(2-fluorophenyl)-2,2-dimethyl-1,3-dioxolan-4-yl)methyl sulfamate]
- ED50 [1]: 69.8 mg/kg
- ED50 ([2]; 0.5 h): 113 mg/kg
- tail-flick test: dose [3]: > 200 mg/kg

Reference: patent US9834535B2, “Sulfamate derivative compounds for use in treating or alleviating pain” (Bio-Pharm Solutions Co., Ltd., priority 2013, dated 2017)
